From publication PMC10934500, “Exploring the Anti-Diabetic Potential of Quercetagitrin through Dual Inhibition of PTPN6 and PTPN9” (Nutrients, 2024) come the findings set out here.

The target in this assay is PTPN6 (Homo sapiens, UniProt P29350). Kind of assay: DiFMUP fluorescence phosphatase assay with recombinant enzyme purified from E. coli. Type of assay: biochemical.
PTPN6, sequence (P29350 whole entry): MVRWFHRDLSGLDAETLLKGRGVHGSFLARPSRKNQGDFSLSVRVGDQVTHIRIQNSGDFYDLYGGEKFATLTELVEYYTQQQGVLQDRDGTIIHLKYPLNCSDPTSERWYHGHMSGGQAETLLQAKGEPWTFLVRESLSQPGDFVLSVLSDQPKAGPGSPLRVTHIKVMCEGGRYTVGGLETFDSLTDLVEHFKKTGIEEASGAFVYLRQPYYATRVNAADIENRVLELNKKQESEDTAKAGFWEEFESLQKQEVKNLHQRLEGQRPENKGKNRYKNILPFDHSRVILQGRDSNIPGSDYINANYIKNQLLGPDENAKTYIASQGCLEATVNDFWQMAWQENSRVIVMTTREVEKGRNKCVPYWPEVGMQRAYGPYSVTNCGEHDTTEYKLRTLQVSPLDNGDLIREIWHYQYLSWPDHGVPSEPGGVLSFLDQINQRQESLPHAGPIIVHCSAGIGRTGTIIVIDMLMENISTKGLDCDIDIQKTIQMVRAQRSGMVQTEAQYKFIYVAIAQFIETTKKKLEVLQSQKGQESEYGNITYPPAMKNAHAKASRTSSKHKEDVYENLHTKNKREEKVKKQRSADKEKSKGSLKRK

As a reminder, the IC50 is the concentration that inhibits the measured activity by half. As to `O=c1c(O)c(-c2ccc(O)c(O)c2)oc2cc(O[C@@H]3O[C@H](CO)[C@@H](O)[C@H](O)[C@H]3O)c(O)c(O)c12` [QG, quercetagitrin], the IC50 is 1000 nM.
